{"source": "patent EP1733758A1", "about": "“Methods for administration of a farnesyl dibenzodiazepinone” (Ecopia Biosciences Inc., priority 2005, dated 2006)", "key": {"[1]": {"experiment": "Acute toxicity of 24-hour CIV administration in monkeys", "format": "in vivo", "details": "infusion rate 2 mL/kg/hour"}, "[2]": {"experiment": "Allometric extrapolation of population pharmacokinetic parameters to humans", "details": "for half-life: human; for half-life / clearance / Vd: plasma, intravenous; for Vd: read-out: Vss", "procedure": "(§1) An analysis was performed to derive allometric equations for Formula I pharmacokinetic parameters using Formula I plasma concentration-time data from three species, including mouse, rat, and monkey, and to estimate human pharmacokinetic parameters from those allometric equations.\n(§2) Plasma concentrations of Formula I were obtained from mice, rats, and monkeys following intravenous injection or continuous infusion. Formula I pharmacokinetic parameters in mice, rats, and monkeys were estimated using population pharmacokinetic analysis, a function of the software program NONMEM™ (version 5). Typical population pharmacokinetic parameters for Formula I in humans were extrapolated from allometric equations that were derived from pharmacokinetic parameters estimated in the three animal species.\nAllometric equations for the pharmacokinetic parameters clearance (CL), volume of distribution (V1 and V2), and inter-compartmental clearance (Q) were derived. The population PK parameters of the compound of Formula I for humans were extrapolated from the allometric equations, and the estimated values are shown in Table 6. Simulated Formula I plasma concentration-time profiles in humans are shown in Figure 13 and estimated end of infusion concentrations are provided in Table 7."}, "[3]": {"experiment": "Pharmacokinetics of 14-day continuous intravenous infusion in monkeys", "format": "in vivo, Cynomolgus monkeys", "details": "for Css / mean steady-state plasma concentration / T½z: 14-day CIV; for Css: average between 30h and 14 days; for Css / T½z: mean; for mean steady-state plasma concentration: between 30 h and 14 days; for T½z: calculated at the end of treatment; for plasma concentration: CIV 30 mg/kg/day", "procedure": "Cynomolgus monkeys received continuous IV infusion over 14 days of Formula I at 5 mg/kg/day, 15 mg/kg/day, or 30 mg/kg/day. The drug was infused intravenously (24 hours/day) into the femoral vein at a dose rate of 2 ml/kg/hour for 14 consecutive days. Blood samples were removed from each monkey on Days 1, 2, 6, 10, and 15 of the treatment period. Monkeys were bled by venipuncture and samples were collected into tubes containing K2EDTA. On Day 1, samples were collected at 2, 6, and 12 hours after initiation of treatment. Additional samples were collected at 30 hours after the start of infusion (Day 2). On Days 6 and 10, samples were collected at approximately 6 hours after the bag changes. At the end of the 14 days of infusion, on Day 15, samples were collected at 1 hour prior to cessation of dose administration, and at 5 min, 30 min, 1 h, 2 h, 4 h, 8 h, and 24 h following cessation of dose administration."}, "[4]": {"test_system": "orthotopic C6 glioma tumor xenograft", "experiment": "Orthotopic C6 glioma tumor xenograft survival model", "format": "in vivo, CD1 female nude mice", "details": "IP 30 mg/kg days 1, 2 and 3, then 10 mg/kg days 4 and 5 and 9 to 38", "procedure": "The antitumor activity of the compound of formula I was further tested in a orthotopic C6 glioma tumor xenograft model in mice. CD1 female nude mice (6 weeks of age) were grafted intra-cerebrally with 5 x 10^4 (volume of 10 microliters) rat C6 glioma cells (day 0). Treatment was initiated 24 h after tumor cell implantation. The compound of Formula I was administered intraperitoneally (IP) at a concentration of 30 mg/kg (volume of 10 mL/Kg) on days 1, 2 and 3 followed by IP injections of 10 mg/kg on days 4 and 5 and 9 to 38. Vehicle (30% PEG; 30% PG; 40% H2O was injected in a volume of 10 mL/kg using the same route and schedule.\nBody weight of animals was monitored every other day and the effect of the compound of Formula I on growth of intracerebral glioma tumors was evaluated by mouse survival and percentage increase in life span (%ILS, expressed as mean survival time of treated animals minus the mean survival time of the control group). By criteria established by the National Cancer Institute, increases in life span exceeding 25% indicate that the drug has significant antitumor activity (Plowman et al. (1997) Human tumor xenografts models in NCI drug development. In: Theicher BA (ed) Anticancer drug development guide: prescreening, clinical trials and approval. Human press, Totowa, pp 101-125). Statistical analysis of mouse survival was performed by Kaplan-Mayer analysis. […]"}, "[5]": {"test_system": "human breast tumor (MDA-MB-231) xenografts", "experiment": "Human MDA-MB-231 breast tumor xenograft efficacy", "format": "in vivo, HRLN female nude mice", "details": "for T/C / %T/C: day 21; for %T/C: P < 0.0001", "procedure": "The antitumor activity of the compound of Formula I was further tested in a human MD-MB-231 breast cancer model in mice. HRLN female nude mice (8 weeks of age) were treated with 5x10^6 MDA-MB-231 tumor cells (SC) in the right flank. Animals were randomized (ten per group) when tumors reach an average size of 80 - 120 mg and treatment began according to the table below. For these studies, the compound of Formula I was formulated in 5% ethanol, 5% PEG-400, 15% Polysorbate 80, and 75% of water containing 5% dextrose.\nTumor measurements were taken twice weekly using calipers and were converted to tumor mass (in milligrams) using the formula: with^2 (mm) x length (mm) x 0.52. Body weights were also recorded twice weekly. Statistical analysis was done using the unpaired two-tailed Student's t test."}, "[6]": {"experiment": "Population pharmacokinetic analysis (NONMEM), mouse", "format": "in vivo", "details": "Mouse (IV)", "procedure": "as §1, §2\nA two-compartment model with a first-order elimination from the central compartment adequately described Formula I plasma concentration-time profiles following intravenous bolus injection (30 mg/kg) in mice and rats, 7-day continuous infusion in rats (50 to 170 mg/kg/day), and 14-day continuous infusion in monkeys (5 to 30 mg/kg/day)."}, "[7]": {"details": "Human, WT 70 Kg, estimated from allometric equations"}, "[8]": {"details": "Human, estimated from allometric equations derived from mouse, rat and monkey"}, "[9]": {"details": "typical population PK parameter"}}, "note": "“And” between values parts separate entries of the source, which are not always exact repeats. Identical values can stand only once. Like-named read-outs stand apart in the source and are kept apart here."}
{"compound": "CC(C)=CCC/C(C)=C/CC/C(C)=C/CN1C(=O)c2cccc(O)c2Nc2c(O)cc(O)cc21", "note": "[Formula I, 10-farnesyl-4,6,8-trihydroxy-dibenzodiazepin-11-one]", "values": [{"measurement": "acute toxicity / tolerability", "setting": "[1]; 35 mg/kg", "result": "well tolerated"}, {"measurement": "acute toxicity / tolerability", "setting": "[1]; 70 mg/kg", "result": "well tolerated"}, {"measurement": "Q", "setting": "[2]; [7]", "result": 2.27, "unit": "L/h"}, {"measurement": "V1", "setting": "[2]; [7]", "result": 13.9, "unit": "L"}, {"measurement": "V2", "setting": "[2]; [7]", "result": 39.2, "unit": "L"}, {"measurement": "Ke", "setting": "[2]; [8]", "result": 1.192, "unit": "h⁻¹"}, {"measurement": "Q", "setting": "[2]; [8]", "result": 0.032, "unit": "L/h/kg"}, {"measurement": "V1", "setting": "[2]; [8]", "result": 0.198, "unit": "L/kg"}, {"measurement": "V2", "setting": "[2]; [8]", "result": 0.559, "unit": "L/kg"}, {"measurement": "half-life", "setting": "[2]; estimated from allometric equations derived from mouse, rat and monkey, read-out: t1/2,α (converted)", "result": 30.5, "unit": "min"}, {"measurement": "half-life", "setting": "[2]; estimated from allometric equations derived from mouse, rat and monkey, read-out: t1/2,β (converted)", "result": 828, "unit": "min"}, {"measurement": "clearance", "setting": "[2]; [7]", "result": 275, "unit": "mL/min"}, {"measurement": "Vd", "setting": "[2]; [7]", "result": 53.1, "unit": "L"}, {"measurement": "clearance", "setting": "[2]; [8]", "result": 3.93, "unit": "mL/min/kg"}, {"measurement": "Vd", "setting": "[2]; [8]", "result": 0.757, "unit": "L/kg"}, {"measurement": "AUC increase between the groups", "setting": "[3]; 15 mg/kg/day group versus 5 mg/kg/day group", "result": 3.4, "unit": "fold"}, {"measurement": "AUC higher than that of the middle dose group", "setting": "[3]; 30 mg/kg/day group versus 15 mg/kg/day group", "result": 4.7, "unit": "fold"}, {"measurement": "Css", "setting": "[3]; 5 mg/kg/day", "result": "358 ng/mL and 358 ^b ng/mL"}, {"measurement": "mean steady-state plasma concentration", "setting": "[3]; 5 mg/kg/day", "result": "~0.8", "unit": "µM"}, {"measurement": "T½z", "setting": "[3]; 5 mg/kg/day", "result": 12, "unit": "h"}, {"measurement": "Css", "setting": "[3]; 15 mg/kg/day", "result": "1,173 ng/mL"}, {"measurement": "mean steady-state plasma concentration", "setting": "[3]; 15 mg/kg/day", "result": "~2.5", "unit": "µM"}, {"measurement": "T½z", "setting": "[3]; 15 mg/kg/day", "result": 8.3, "unit": "h"}, {"measurement": "Css", "setting": "[3]; 30 mg/kg/day", "result": "6,283 ng/mL"}, {"measurement": "T½z", "setting": "[3]; 30 mg/kg/day", "result": 8.1, "unit": "h"}, {"measurement": "plasma concentration", "setting": "[3]; Day 1", "result": "2,814 ng/mL"}, {"measurement": "plasma concentration", "setting": "[3]; Day 6", "result": "4,354 ng/mL"}, {"measurement": "plasma concentration", "setting": "[3]; Day 10", "result": "6,855 ng/mL"}, {"measurement": "plasma concentration", "setting": "[3]; day 15", "result": "8,561 ng/mL"}, {"measurement": "increase in life span", "setting": "[4]", "result": 29, "unit": "%"}, {"measurement": "increase survival", "setting": "[4]", "result": 7, "unit": "days"}, {"measurement": "T/C", "setting": "[5]; IP 30 mg/kg every three days x 7, P = 0.0007", "result": 58, "unit": "%"}, {"measurement": "%T/C", "setting": "[5]; SC 20 mg/kg everyday for 21 days", "result": 40, "unit": "%"}, {"measurement": "%T/C", "setting": "[5]; SC 30 mg/kg days 1 to 5, 8 to 12", "result": 35, "unit": "%"}, {"measurement": "T/C", "setting": "[5]; SC 50 mg/kg every three days x 7, P= 0.0019", "result": 68, "unit": "%"}, {"measurement": "antitumor activity", "setting": "[5]; bolus intravenous treatment (100 mg/kg, 5/2/5/2/5)", "result": "did not result in activity"}, {"measurement": "Q", "setting": "[6]; WT 0.022 Kg", "result": 0.001, "unit": "L/h"}, {"measurement": "V1", "setting": "[6]; WT 0.022 Kg", "result": 0.004, "unit": "L"}, {"measurement": "V2", "setting": "[6]; WT 0.022 Kg", "result": 0.005, "unit": "L"}, {"measurement": "Ke", "setting": "[6]; [9]", "result": 8.466, "unit": "h⁻¹"}, {"measurement": "Q", "setting": "[6]; [9]", "result": 0.0654, "unit": "L/h/kg"}, {"measurement": "V1", "setting": "[6]; [9]", "result": 0.176, "unit": "L/kg"}, {"measurement": "V2", "setting": "[6]; [9]", "result": 0.225, "unit": "L/kg"}]}
